≈ marks a conversion by molar mass, not a printed value. Values belong to the compound of their own block, whether it stands above or below them. Calls of active or inactive are those of the source. The rule behind the calls is not given here.
Experiments:
[1] = Solubility in ethyl acetate incubated for 10 mins; type: physicochemical
[2] = Solubility in methanol incubated for 10 mins; type: physicochemical
[3] = Solubility in […] incubated for 10 mins; type: physicochemical
[4] = Solubility in water incubated for 10 mins; type: physicochemical
[5] = Antioxidant activity assessed as clearing rate incubated for 30 mins under dark condition by DPPH free radical scavenging assay; type: functional
[6] = Antioxidant activity assessed as inhibition of DPPH free radical scavenging activity incubated for 30 mins under dark condition; type: functional
[7] = Antioxidant activity assessed as clearing rate incubated for 5 mins in presence of pyrogallol by superoxide anion scavenging assay; type: functional
[8] = Antioxidant activity assessed as inhibition of superoxide anion scavenging activity incubated for 5 mins in presence of pyrogallol; type: functional
[9] = Inhibition of lipid peroxidation in egg yolk (unknown origin) at 100 uM preheated with compound and FeSO4 for 15 mins followed by TCA/TBA addition measured after 15 mins by absorbance based assay relative to control; type: functional, tissue-based; parameters: scale not given: the % may be the effect or the level left; settings: time 30.0 min
[10] = Inhibition of lipid peroxidation in egg yolk (unknown origin) preheated with compound and FeSO4 for 15 mins followed by TCA/TBA addition measured after 15 mins by absorbance based assay; type: functional, tissue-based
[11] = Toxicity in male Sprague-Dawley rat model of CCl4-induced ALI assessed as body weight change at 100 mg/kg, IG qd pretreated with compound for 7 days followed by CCl4 administration after 2 hrs post-compound treatment measured after 16 hrs post-CCl4 injection; type: organism-based; settings: in vivo, po, 186 h
[12] = Toxicity in male Sprague-Dawley rat model of CCl4-induced ALI assessed as animal growth at 100 mg/kg, IG qd pretreated with compound for 7 days followed by CCl4 administration after 2 hrs post-compound treatment measured after 16 hrs post-CCl4 injection; type: organism-based; settings: in vivo, po, 186 h
Rattus norvegicus [13] = assay: (§1) Hepatoprotective activity in male Sprague-Dawley rat model of CCl4-induced ALI assessed as reduction in yellowing of liver at 100 mg/kg, IG qd pretreated with compound for 7 days followed by CCl4 administration after 2 hrs post-compound treatment measured after 16 hrs post-CCl4 injection; type: functional, organism-based; settings: time 186.0 hrs
Rattus norvegicus [14] = assay: Hepatoprotective activity in male Sprague-Dawley rat model of CCl4-induced ALI assessed as reduction in dullness of liver margin at 100 mg/kg, IG qd pretreated with compound for 7 days followed by CCl4 administration after 2 hrs post-compound treatment measured after 16 hrs post-CCl4 injection; type: functional, organism-based; settings: time 186.0 hrs
Rattus norvegicus [15] = assay: (§2) Hepatoprotective activity in male Sprague-Dawley rat model of CCl4-induced ALI assessed as reduction in white granular fat in liver at 100 mg/kg, IG qd pretreated with compound for 7 days followed by CCl4 administration after 2 hrs post-compound treatment measured after 16 hrs post-CCl4 injection; type: functional, organism-based; settings: time 186.0 hrs
Rattus norvegicus [16] = assay: Hepatoprotective activity in male Sprague-Dawley rat model of CCl4-induced ALI assessed as reduction in roughened surface in liver at 100 mg/kg, IG qd pretreated with compound for 7 days followed by CCl4 administration after 2 hrs post-compound treatment measured after 16 hrs post-CCl4 injection; type: functional, organism-based; settings: time 186.0 hrs
Rattus norvegicus [17] = assay: Hepatoprotective activity in male Sprague-Dawley rat model of CCl4-induced ALI assessed as restoration of serum AST level at 100 mg/kg, IG qd pretreated with compound for 7 days followed by CCl4 administration after 2 hrs post-compound treatment measured after 16 hrs post-CCl4 injection; type: functional, organism-based; settings: time 186.0 hrs
Rattus norvegicus [18] = assay: Hepatoprotective activity in male Sprague-Dawley rat model of CCl4-induced ALI assessed as restoration of serum ALT level at 100 mg/kg, IG qd pretreated with compound for 7 days followed by CCl4 administration after 2 hrs post-compound treatment measured after 16 hrs post-CCl4 injection; type: functional, organism-based; settings: time 186.0 hrs
Rattus norvegicus [19] = assay: Hepatoprotective activity in male Sprague-Dawley rat model of CCl4-induced ALI assessed as restoration of serum LDH level at 100 mg/kg, IG qd pretreated with compound for 7 days followed by CCl4 administration after 2 hrs post-compound treatment measured after 16 hrs post-CCl4 injection; type: functional, organism-based; settings: time 186.0 hrs
Rattus norvegicus [20] = assay: as §1, with “vacuoles” for “yellowing of liver”, “injection by H and E staining based analysis” for “injection”; type: functional, organism-based; settings: time 186.0 hrs
Rattus norvegicus [21] = assay: as §2, with “acute” for “white granular”, “deposition” for “in liver”, “injection by oil red O staining based analysis” for “injection”; type: functional, organism-based; settings: time 186.0 hrs
Mus musculus [22] = assay: Anti-MASH activity in HFD-fed CCl4-treated male C57BL/6 mouse assessed as reversal of hepatopancreas somatic indices at 150 mg/kg, po qd treated for 4 weeks; type: functional, organism-based
Mus musculus [23] = assay: Anti-MASH activity in HFD-fed CCl4-treated male C57BL/6 mouse assessed as reduction in hepatocyte ballooning in liver at 150 mg/kg, po qd treated for 4 weeks by H and E/Oil red O staining based analysis; type: functional, organism-based
Mus musculus [24] = assay: Anti-MASH activity in HFD-fed CCl4-treated male C57BL/6 mouse assessed as reduction in inflammation in liver at 150 mg/kg, po qd treated for 4 weeks by H and E/Oil red O staining based analysis; type: functional, organism-based
Mus musculus [25] = assay: Anti-MASH activity in HFD-fed CCl4-treated male C57BL/6 mouse assessed as reduction in steatosis in liver at 150 mg/kg, po qd treated for 4 weeks by H and E/Oil red O staining based analysis; type: functional, organism-based
Mus musculus [26] = assay: Anti-MASH activity in HFD-fed CCl4-treated male C57BL/6 mouse assessed as reduction in fat accumulation in liver at 150 mg/kg, po qd treated for 4 weeks by Oil red O staining based analysis; type: functional, organism-based
[27] = AUC (0 to infinity) in overnight-fasted male Sprague-Dawley rat at 150 mg/kg, po measured up to 12 hrs by HPLC analysis; type: ADME, organism-based; settings: in vivo
Mus musculus [28] = assay: Anti-MASH activity in HFD-fed CCl4-treated male C57BL/6 mouse assessed as reduction in hepatic triglyceride level at 150 mg/kg, po qd treated for 4 weeks by ELISA; type: functional, organism-based
Mus musculus [29] = assay: Anti-MASH activity in HFD-fed CCl4-treated male C57BL/6 mouse assessed as reduction in hepatic cholesterol level at 150 mg/kg, po qd treated for 4 weeks by ELISA; type: functional, organism-based
[30] = MRT (0 to infinity) in overnight-fasted male Sprague-Dawley rat at 150 mg/kg, po measured up to 12 hrs by HPLC analysis; type: ADME, organism-based; settings: in vivo
[31] = Terminal half life in overnight-fasted male Sprague-Dawley rat at 150 mg/kg, po measured up to 12 hrs by HPLC analysis; type: ADME, organism-based; settings: in vivo, read-out: beta t1/2 (converted)
[32] = Tmax in overnight-fasted male Sprague-Dawley rat at 150 mg/kg, po measured up to 12 hrs by HPLC analysis; type: ADME, organism-based; settings: in vivo
[33] = Cmax in overnight-fasted male Sprague-Dawley rat at 150 mg/kg, po measured up to 12 hrs by HPLC analysis; type: ADME, organism-based; settings: in vivo
[34] = Apparent volume of distribution during terminal phase in overnight-fasted male Sprague-Dawley rat at 150 mg/kg, po measured up to 12 hrs by HPLC analysis; type: ADME, organism-based; settings: in vivo, read-out: Vz/F
[35] = Apparent clearance during terminal phase in overnight-fasted male Sprague-Dawley rat at 150 mg/kg, po measured up to 12 hrs by HPLC analysis; type: ADME, organism-based; settings: in vivo, read-out: CLz/F (converted)

- solubility [1]: > 1000 mg/mL
- solubility [2]: > 1000 mg/mL
- solubility [3]: > 1000 mg/mL
- solubility at 10 min [4]: 0.3 mg/mL (≈ 0.555 mM)
- IC50 [6]: > 200 µM
- IC50 [8]: > 200 µM
- IC50 [10]: 24 µM
SMILES: COc1cc([C@@H]2Oc3cc([C@H]4Oc5cc(O)cc(O)c5C(=O)[C@@H]4O)ccc3OC2CSC(C)=O)ccc1O (stereo not given in full)
- Activity [5]: 39.3%
- Activity [7]: 36.6%
- Activity [9]: 83.8%

- solubility [1]: 523 mg/mL (≈ 526 mM)
- solubility [2]: 246 mg/mL (≈ 247 mM)
- solubility [3]: > 1000 mg/mL
- solubility at 10 min [4]: 0.19 mg/mL (≈ 0.191 mM)
- IC50 [6]: 158 µM
- IC50 [8]: > 200 µM
- IC50 [10]: 28.7 µM
SMILES: COc1cc(C2Oc3cc([C@H]4Oc5cc(O)cc(O)c5C(=O)[C@@H]4O)ccc3OC2CSSCC2Oc3ccc([C@H]4Oc5cc(O)cc(O)c5C(=O)[C@@H]4O)cc3O[C@H]2c2ccc(O)c(OC)c2)ccc1O (single isomer, unassigned)
- Activity [5]: 53.9%
- Activity [7]: 40.6%
- Activity [9]: 75.2%

- solubility [1]: 15.4 mg/mL (≈ 31.9 mM)
- solubility [2]: 10.6 mg/mL (≈ 22 mM)
- solubility [3]: 367 mg/mL (≈ 761 mM)
- solubility at 10 min [4]: 0.14 mg/mL (≈ 0.29 mM)
- IC50 [6]: > 200 µM
- IC50 [8]: > 200 µM
- IC50 [10]: > 100 µM
- AUC(0-inf) [27]: 494 ng·h/mL
- MRT inf [30]: 5.22 h
- half-life [31]: 2.45 h
- Tmax [32]: 1.02 h
- Cmax [33]: 194 ng/mL
- Vd/F [34]: 447 L
- CL/F [35]: 1250 mL/min
SMILES: COc1cc([C@@H]2Oc3cc([C@H]4Oc5cc(O)cc(O)c5C(=O)[C@@H]4O)ccc3OC2CO)ccc1O (stereo not given in full)
- Activity [5]: 47.2%
- Activity [7]: 34.6%
- Activity [9]: 39.6%
- Activity [11]: Non-toxic
- Activity [12]: Non-toxic
- Activity (Rattus norvegicus [13]): Active
- Activity (Rattus norvegicus [14]): Active
- Activity (Rattus norvegicus [15]): Active
- Activity (Rattus norvegicus [16]): Active
- Activity (Rattus norvegicus [17]): Active
- Activity (Rattus norvegicus [18]): Active
- Activity (Rattus norvegicus [19]): Active
- Activity (Rattus norvegicus [20]): Active
- Activity (Rattus norvegicus [21]): Active
- Activity (Mus musculus [22]): Active
- Activity (Mus musculus [23]): Active
- Activity (Mus musculus [24]): Active
- Activity (Mus musculus [25]): Active
- Activity (Mus musculus [26]): Active
- Activity (Mus musculus [28]): Active
- Activity (Mus musculus [29]): Active
